Experiments:
MAP kinase p38 [1] = molecular target: T1, MAP kinase p38 (Homo sapiens, UniProt O15264+Q15759+Q16539+P53778); experiment: Binding affinity towards human Mitogen-activated protein kinase p38 expressed as IC50; assay type: protein assay
Glucagon receptor [2] = molecular target: T2, Glucagon receptor (Homo sapiens, UniProt P47871); experiment: Binding affinity towards human glucagon receptor in absence of Mg2+ expressed as IC50
Glucagon receptor [3] = molecular target: T2, Glucagon receptor; experiment: Affinity for human glucagon receptor in presence of Mg2+
Glucagon receptor [4] = molecular target: T2, Glucagon receptor; experiment: Binding affinity towards human glucagon receptor in absence of Mg2+; conditions: concentration not given here
Glucagon receptor [5] = molecular target: T2, Glucagon receptor; experiment: Affinity for human glucagon receptor in absence of Mg2+; set-up: concentration or dose not given beside the values; conditions: concentration not given here
MAP kinase p38 [6] = molecular target: T1, MAP kinase p38; experiment: Inhibition of human Mitogen-activated protein kinase p38 at 40 uM; assay type: protein assay

T2 sequence (P47871 whole entry): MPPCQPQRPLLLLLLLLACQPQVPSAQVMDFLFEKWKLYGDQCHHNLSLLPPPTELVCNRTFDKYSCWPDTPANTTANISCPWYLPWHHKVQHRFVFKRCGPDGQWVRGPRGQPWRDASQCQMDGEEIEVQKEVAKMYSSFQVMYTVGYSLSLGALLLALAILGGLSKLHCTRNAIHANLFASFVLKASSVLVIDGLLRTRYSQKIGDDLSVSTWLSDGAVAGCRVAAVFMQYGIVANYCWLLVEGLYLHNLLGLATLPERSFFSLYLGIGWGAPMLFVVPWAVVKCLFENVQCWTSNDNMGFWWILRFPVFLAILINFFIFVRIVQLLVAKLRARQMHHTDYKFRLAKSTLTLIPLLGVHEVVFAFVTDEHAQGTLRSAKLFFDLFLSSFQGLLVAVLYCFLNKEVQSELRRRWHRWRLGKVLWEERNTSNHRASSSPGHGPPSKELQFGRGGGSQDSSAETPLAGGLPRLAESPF

| SMILES | IC50 (MAP kinase p38 [1]) | IC50 (Glucagon receptor [2]) | IC50 (Glucagon receptor [3]) | inhibition (Glucagon receptor [4]) | inhibition (Glucagon receptor [5]) | inhibition (MAP kinase p38 [6]) |
| --- | --- | --- | --- | --- | --- | --- |
| N#Cc1ccc(-c2nc(-c3ccncc3)c(-c3ccc(F)cc3)[nH]2)cc1 | 0.21 µM | 8 µM |  |  |  |  |
| Clc1ccc(-c2nc(-c3ccc(-c4ccccc4)cc3)c(-c3ccncc3)[nH]2)cc1 | 3.3 µM | 0.14 µM | 3.8 µM |  |  |  |
| CCCOc1ccc(-c2[nH]c(-c3ccc(Cl)cc3)nc2-c2ccncc2)c(OCCC)c1 | 2.4 µM | 0.013 µM | 0.12 µM |  |  |  |
| CCCCc1ccc(-c2[nH]c(-c3ccc(Cl)cc3)nc2-c2ccncc2)cc1 | > 10 µM | 0.074 µM | 0.15 µM |  |  |  |
| Clc1ccc(-c2nc(-c3ccccc3Oc3ccccc3)c(-c3ccncc3)[nH]2)cc1 | 0.15 µM | 0.0065 µM | 0.29 µM |  |  |  |
| Cc1cnccc1-c1[nH]c(-c2ccc(Cl)cc2)nc1-c1ccc(F)cc1 | 0.02 µM | 1.1 µM |  |  |  |  |
| Fc1ccc(-c2[nH]c(-c3ccc(Br)cc3)nc2-c2ccncc2)cc1 | 0.16 µM | 0.27 µM | 2.9 µM |  |  |  |
| Oc1ccc(-c2nc(-c3ccc(F)cc3)c(-c3ccncc3)[nH]2)cc1 |  |  |  | < 20% |  |  |
| Fc1ccc(-c2[nH]c(-c3ccc(Br)o3)nc2-c2ccncc2)cc1 | 0.19 µM |  |  |  | < 20% |  |
| CSc1ccc(-c2nc(-c3ccncc3)c(-c3ccc(F)cc3)n2C)cc1 | 0.86 µM |  |  |  | 38% |  |
| Fc1ccc(-c2[nH]c(-c3ccc(I)cc3)nc2-c2ccncc2)cc1 | 0.1 µM | 0.51 µM |  |  |  |  |
| Cc1cc(-c2[nH]c(-c3ccc(Cl)cc3)nc2-c2ccc(F)cc2)ccn1 | 0.05 µM |  |  |  | 38% |  |
| Clc1ccc(-c2nc(-c3ccc(I)cc3)c(-c3ccncc3)[nH]2)cc1 | 0.14 µM | 0.13 µM | 0.75 µM |  |  |  |
| CSc1ccc(-c2nc(-c3ccc(F)cc3)c(-c3ccncc3)n2C)cc1 | 0.52 µM |  |  |  | 10% |  |
| Brc1ccc(-c2nc(-c3ccccc3)c(-c3ccccc3)[nH]2)cc1 | 2.2 µM |  |  |  | 37% |  |
| Clc1ccc(-c2nc(-c3ccc(Oc4ccccc4)cc3)c(-c3ccncc3)[nH]2)cc1 | 0.25 µM | 0.027 µM | 0.11 µM |  |  |  |
| CC(C)c1ccc(-c2nc(-c3ccc(F)cc3)c(-c3ccncc3)[nH]2)cc1 | 0.28 µM | 0.7 µM |  |  |  |  |
| Brc1ccc(-c2nc(-c3ccccc3)c(-c3ccncc3)[nH]2)cc1 | 0.04 µM | 0.782 µM |  |  |  |  |

| SMILES | IC50 (MAP kinase p38 [1]) | IC50 (Glucagon receptor [2]) | IC50 (Glucagon receptor [3]) | inhibition (Glucagon receptor [4]) | inhibition (Glucagon receptor [5]) | inhibition (MAP kinase p38 [6]) |
| --- | --- | --- | --- | --- | --- | --- |
| CSc1ccc(-c2nc(-c3ccc(F)cc3)c(-c3ccncc3)o2)cc1 | 0.93 µM |  |  |  | -8% |  |
| Oc1ccc(-c2[nH]c(-c3ccc(Br)cc3)nc2-c2ccccc2)cc1 | 0.1 µM |  |  |  | 24% |  |
| Cc1ccc(-c2nc(-c3ccc(F)cc3)c(-c3ccncc3)[nH]2)cc1 | 0.09 µM | 1.3 µM |  |  |  |  |
| Fc1ccc(-c2[nH]c(-c3ccc(Br)s3)nc2-c2ccncc2)cc1 | 0.11 µM | 2.2 µM |  |  |  |  |
| Clc1ccc(-c2nc(-c3cccc(Oc4ccccc4)c3)c(-c3ccncc3)[nH]2)cc1 | 0.22 µM | 0.013 µM | 0.15 µM |  |  |  |
| CCCCOc1ccccc1-c1[nH]c(-c2ccc(Cl)cc2)nc1-c1ccncc1 | > 1 µM | 0.0085 µM | 0.11 µM |  |  |  |
| CC(C)(C)c1ccc(-c2[nH]c(-c3ccc(Cl)cc3)nc2-c2ccncc2)cc1 | > 10 µM | 0.13 µM | 3.4 µM |  |  |  |
| Fc1ccc(-c2[nH]c(CCc3ccccc3)nc2-c2ccncc2)cc1 | 0.13 µM |  |  |  | < 20% |  |
| Fc1ccc(-c2[nH]c(-c3ccc(Cl)cc3)nc2-c2ccncc2)cc1 | 0.08 µM | 0.4 µM | 3.2 µM |  |  |  |
| Fc1ccc(-c2[nH]c(-c3ccc(-c4ccccc4)cc3)nc2-c2ccncc2)cc1 | 0.3 µM | 10 µM |  |  |  |  |
| Fc1ccc(-c2[nH]c(-c3ccccc3Br)nc2-c2ccncc2)cc1 | 0.09 µM |  |  | < 20% |  |  |
| Fc1ccc(-c2nc(-c3ccccc3)[nH]c2-c2ccncc2)cc1 |  | > 20 µM |  |  |  |  |
| Clc1ccc(-c2nc(-c3ccc(Cl)cc3)c(-c3ccncc3)[nH]2)cc1 | 0.023 µM | 0.19 µM | 2.2 µM |  |  |  |
| Fc1ccc(-c2[nH]c(-c3cccc4ccccc34)nc2-c2ccncc2)cc1 | 0.34 µM | 1.5 µM |  |  |  |  |
| Clc1ccc(-c2nc(-c3cccc(-c4ccccc4)c3)c(-c3ccncc3)[nH]2)cc1 | 0.59 µM | 0.061 µM | > 3 µM |  |  |  |
| CCCCOc1ccc(-c2[nH]c(-c3ccc(Cl)cc3)nc2-c2ccncc2)c(OCCCC)c1 |  | 0.0065 µM | 0.053 µM |  |  | 20% |
| Fc1ccc(-c2[nH]c(-c3cc(Br)cs3)nc2-c2ccncc2)cc1 | 0.1 µM | 2.8 µM |  |  |  |  |
| Fc1ccc(-c2[nH]c(-c3cccc(Br)c3)nc2-c2ccncc2)cc1 | 0.15 µM | 1.4 µM |  |  |  |  |

— ChEMBL document CHEMBL1133966, “Substituted imidazoles as glucagon receptor antagonists” (Bioorg Med Chem Lett, 2001)
